42 substances from US8652473B2, “Antibodies to EGF receptor epitope peptides and uses thereof” (Ludwig Institute for Cancer Research Ltd., priority 2004, dated 2014) can be followed below.

For one assay, the system named is mAb 806. Put plainly: Binding of yeast surface displayed EGFR 273-621 point mutants to mAb […] (flow cytometry). The settings on record: 75 nM 806. Also on record: species or system mouse; key: ++ indicates wild type binding; +, intermediate binding; −, binding equal to negative control. The protocol:
Out of 100 clones sequenced, roughly 20% contained multiple mutations and were omitted from subsequent analysis. […] All mutations are localized to the disulfide-bonded loop between cysteines 287 and 302, as has been previously determined (34). […] To verify the results from the fine epitope mapping library, alanine scanning through site-directed mutagenesis (SDM) was performed on the entire loop 287-302 (TABLE 7, right column). All sites with loss of binding by alanine scanning (287, 293, 298, and 302) correspond to mutants isolated from the library. […] Since an average of 6-7 amino acid substitutions are accessible by single nucleotide mutagenesis, a larger range of physicochemical diversity can be sampled compared to alanine scanning. […] The C287R substitution raises this dissociation constant to 127 nM (68% confidence interval of 103-160 nM), which gives a ΔΔG value of +2.4 kcal/mol when compared to wild-type and, in alanine scanning terms, is an intermediate loss of binding (36).
The epitope mapping library was constructed using the Stratagene GeneMorph® random mutagenesis kit to give a low mutagenesis rate. The template used for library construction was a pCT302 backbone containing EGFR fragment 273-621, with a C283A mutation to prevent disulfide mispairing, inserted for yeast display (27). The PCR products were gel purified and extracted using a Qiagen Qiaquick gel extraction kit. The library was transformed into Saccharomyces cerevisiae strain EBY100 (28) by electroporation (40) and homologous recombination (41) using a Bio-Rad (Richmond, Calif.) Gene Pulser Transfection Apparatus. […] Growth and expression of the library using yeast surface display was performed as previously described (28).
Anti-c-myc chicken IgY fraction was purchased from Molecular Probes (Eugene, Oreg.). An appropriate number of yeast cells (at least 10× library size) were washed with FACS buffer (phosphate buffered saline containing 1 mg/ml bovine serum albumin). The cells were incubated with 4 μg/ml anti-c-myc chicken IgY and the appropriate concentration of mAb for 30 min at 25° C. The cells were then washed with FACS buffer and incubated with 1:25 dilution phycoerythrin-labeled goat anti-mouse IgG (Sigma) and 1:100 dilution Alexa Fluor® 488 goat anti-chicken IgG (Molecular Probes) for 30 min at 4° C. The labeled cells were rinsed, and cell libraries were sorted using a MoFlo FACS machine at the MIT flow cytometry core facility.
Plasmids from the sorted library populations were recovered using Zymoprep™ and sequenced at the MIT Biopolymers Laboratory. Site-directed mutants were made using QuickChange® site-directed mutagenesis (Stratagene). Single clones were transformed into yeast using EZ Yeast Transformation (Zymo Research) and grown in minimal media (yeast nitrogen base, casein hydrolysate, dextrose, and phosphate buffer pH 7.4) overnight. Yeast surface protein expression was induced by transferring to minimal media with galactose and incubating overnight. For each clone, 1×10^6 cells were labeled as before with anti-c-myc chicken IgY, the appropriate mAb, and secondary fluorescent antibodies. Fluorescence data was obtained using a Coulter Epics XL flow cytometer (Beckman-Coulter) and was analyzed using DakoCytomation Summit™ software

In assay [1] the test system is mAb 806 binding to immobilized 501-Fc. The assay is described as follows: ELISA, peptide inhibition of mAb […] binding to 501-Fc. Also noted: species or system human. As to conditions: increasing concentrations of peptide. (In general: In an ELISA, binding on a coated surface is turned into a signal by an enzyme label.)
Assay [2] concerns mAb 806 binding to immobilized 1-501 EGFR fragment. Put plainly: ELISA, peptide inhibition of mAb […] binding to 1-501 EGFR. As to conditions: peptide in solution, increasing concentrations. Also noted: species or system human.
The subject of assay [3] is mAb 806 binding to immobilized 287-302 EGFR peptide. Put plainly: BIAcore, soluble EGFR peptides blocking mAb […] binding. Also on record: species or system human. The settings on record: mAb […] 500 nM; soluble peptide 5 and 10 μM; amine coupling. (In SPR one partner is held on a chip, and binding of the other changes the refractive index at the surface.)
Method: Analysis of mAb 806 binding to peptides by BIAcore. […] Binding affinity was then determined by Scatchard analysis (insert).
A BIAcore 3000 was used for all experiments. The peptides containing the putative mAb 806 epitope were immobilised on a CM5 sensor chip using amine or thiol-disulphide exchange coupling at a flow rate of 5 μl/min (34). The 806 antibody was passed over the sensor surface at a flow rate of 5 μl/min at 25° C. The surfaces were generated between runs by injecting 10 mM HCl at a flow rate of 10 μl/min.
[4] abbreviates: EGFR Mutant (SDM) in loop 287-302, 273-621 on yeast.
Setting [5] is: EGFR Mutant (Library), 273-621 on yeast.

For “V299D: yeast displayed EGFR 273-621 site-directed mutant”, the “mAb […] Binding” value in the assay with mAb 806 (setting [4]) is listed as “−”.
Turning to “E295A: yeast displayed EGFR 273-621 site-directed mutant”, the “mAb […] Binding” value in the assay on mAb 806 (setting [4]) is on record as “++”.
“C302G: yeast displayed EGFR 273-621 point mutant from library”: the “mAb […] Binding” value in the assay on mAb 806 (setting [5]) is listed as “−”.
For “C287Y: yeast displayed EGFR 273-621 point mutant from library”, the “mAb […] Binding” value in the assay on mAb 806 (setting [5]) is listed as “+”.
For “C302R: yeast displayed EGFR 273-621 point mutant from library”, the “mAb […] Binding” value with mAb 806 (setting [5]) was “+”.
The same measure, in the same setting: the same measure for “R300P: yeast displayed EGFR 273-621 point mutant from library”: “−”.
With “K301A: yeast displayed EGFR 273-621 site-directed mutant”, the “mAb […] Binding” value in the assay with mAb 806 (setting [4]) is “++”.
As for “A289K: yeast displayed EGFR 273-621 site-directed mutant”, in the assay on mAb 806 (setting [4]), the “mAb […] Binding” value was “++”.
On the same count and under the same terms, the same measure for “V299K: yeast displayed EGFR 273-621 site-directed mutant”: “++”.
Consider “C302A: yeast displayed EGFR 273-621 site-directed mutant”, for which the “mAb […] Binding” value with mAb 806 (setting [4]) was “−”.
On to “E293G: yeast displayed EGFR 273-621 point mutant from library”, for which the “mAb […] Binding” value in the assay on mAb 806 (setting [5]) is recorded as “+”.
Regarding “D297A: yeast displayed EGFR 273-621 site-directed mutant”, the “mAb […] Binding” value with mAb 806 (setting [4]) was “++”.
Consider “G298D: yeast displayed EGFR 273-621 point mutant from library”, for which, in the assay on mAb 806 (setting [5]), the “mAb […] Binding” value was “−”.
For the substance “K301E: yeast displayed EGFR 273-621 point mutant from library”, the “mAb […] Binding” value in the assay on mAb 806 (setting [5]) was “+”.
Consider “G288A: yeast displayed EGFR 273-621 site-directed mutant”, for which the “mAb […] Binding” value in the assay with mAb 806 (setting [4]) is “++”.
Consider “CGADSYEM (epitope peptide) [N-terminal fragment from cyanogen bromide cleavage of the 287-302 peptide]”, for which, in assay [1], the “inhibition of mAb […] binding to 501-Fc (ELISA)” value is reported as “incapable of inhibiting”.
For “C287W: yeast displayed EGFR 273-621 point mutant from library”, in the assay with mAb 806 (setting [5]), the “mAb […] Binding” value is recorded as “+”.
In the case of “E293A: yeast displayed EGFR 273-621 site-directed mutant”, the “mAb […] Binding” value in the assay with mAb 806 (setting [4]) is on record as “+”.
For the substance “E293D: yeast displayed EGFR 273-621 point mutant from library”, the “mAb […] Binding” value with mAb 806 (setting [5]) is “+”.
As to “S291A: yeast displayed EGFR 273-621 site-directed mutant”, the “mAb […] Binding” value in the assay with mAb 806 (setting [4]) is recorded as “++”.
Take “Y292A: yeast displayed EGFR 273-621 site-directed mutant”: the “mAb […] Binding” value in the assay on mAb 806 (setting [4]) is “++”.
In the case of “E296A: yeast displayed EGFR 273-621 site-directed mutant”, the “mAb […] Binding” value with mAb 806 (setting [4]) is “++”.
In the case of “G298S: yeast displayed EGFR 273-621 point mutant from library”, the “mAb […] Binding” value in the assay with mAb 806 (setting [5]) is given as “−”.
“EEGVRKC (epitope peptide) [C-terminal (EEGVRKC), C-terminal fragment from cyanogen bromide cleavage of the 287-302 peptide]”: the “inhibition of mAb […] binding to 501-Fc (ELISA)” value in assay [1] is “incapable of inhibiting”.
Regarding “wild-type 273-621: yeast surface displayed wild-type EGFR fragment 273-621”, in the assay on mAb 806 (wild-type EGFR 273-621 on yeast), the “mAb […] binding score” value was “++”.
Regarding “C287S: yeast displayed EGFR 273-621 point mutant from library”, the “mAb […] Binding” value in the assay on mAb 806 (setting [5]) was “+”.
Take “D290A: yeast displayed EGFR 273-621 site-directed mutant”: the “mAb […] Binding” value with mAb 806 (setting [4]) is “++”.
As for “E293K: yeast displayed EGFR 273-621 point mutant from library”, in the assay on mAb 806 (setting [5]), the “mAb […] Binding” value is given as “−”.
Turning to “V299A: yeast displayed EGFR 273-621 site-directed mutant”, the “mAb […] Binding” value with mAb 806 (setting [4]) is on record as “++”.
Take “C302Y: yeast displayed EGFR 273-621 point mutant from library”: the “mAb […] Binding” value in the assay with mAb 806 (setting [5]) is reported as “+”.
Consider “G298A: yeast displayed EGFR 273-621 site-directed mutant”, for which the “mAb […] Binding” value with mAb 806 (setting [4]) is reported as “+”.
Take “CGADSYEMEEDG (epitope peptide) [287-298 EGFR peptide]”: in assay [2], the “inhibition of mAb […] binding to immobilized 1-501 fragment (ELISA)” value was “did not inhibit”. Moreover, the “inhibition of mAb […] binding to immobilized 287-302 EGFR peptide (BIAcore)” value in assay [3] is “unable to prevent binding”.
For the substance “C287G: yeast displayed EGFR 273-621 point mutant from library”, the “mAb […] Binding” value in the assay on mAb 806 (setting [5]) was “+”.
Regarding “C302F: yeast displayed EGFR 273-621 point mutant from library”, the “mAb […] Binding” value in the assay with mAb 806 (setting [5]) is “+”.
As to “R300A: yeast displayed EGFR 273-621 site-directed mutant”, the “mAb […] Binding” value in the assay on mAb 806 (setting [4]) is “++”.
Take “C287R: yeast displayed EGFR 273-621 point mutant from library”: the “mAb […] Binding” value with mAb 806 (setting [5]) is “+”.
Same read-out and setting: the same measure for “C302S: yeast displayed EGFR 273-621 point mutant from library”: “−”; for “R300C: yeast displayed EGFR 273-621 point mutant from library”: “+”.
“C287A: yeast displayed EGFR 273-621 site-directed mutant”: the “mAb […] Binding” value in the assay with mAb 806 (setting [4]) was “+”.
As for “CGADSYEMEEDGVRK (epitope peptide) [287-301 EGFR peptide]”, in assay [3], the “inhibition of mAb […] binding to immobilized 287-302 EGFR peptide (BIAcore)” value is reported as “weakly inhibit”.
Turning to “M294A: yeast displayed EGFR 273-621 site-directed mutant”, in the assay with mAb 806 (setting [4]), the “mAb […] Binding” value is given as “++”.
Turning to “D297Y: yeast displayed EGFR 273-621 point mutant from library”, in the assay with mAb 806 (setting [5]), the “mAb […] Binding” value is “+”.
